Assay results reported in patent publication US7410971B2, “1,2-di(cyclic)substituted benzene compounds” (Eisai R&D Management Co., Ltd., priority 2003, dated 2008).

System: colon-infiltrating neutrophils (myeloperoxidase enzyme activity)
Assay: Oxazolone-induced colon neutrophil infiltration model
Format: in vivo, Balb/c mice
Details: Mus musculus, po, 30 mg/kg orally 30 minutes prior to intrarectal oxazolone, colon myeloperoxidase activity 4 hours after, vs oxazolone control group, read-out: Inhibitory rate (%)
Experimental: Evaluation of Compounds in Oxazolone-Induced Colon Neutrophil Infiltration Model
<Sensitization with Oxazolone>
Five- to six-week-old male Balb/c mice (Charles River Japan) were shaven at the abdomen to an approximately 2 cm square area. A 100% ethanol solution containing 3% 4-ethoxymethylene-2-phenyl-2-oxazolin-5-one (hereinafter referred to as “oxazolone”; Sigma) was applied at 150 μl onto the abdomen of each mouse.
<Preparation of Emulsion Containing Oxazolone>
Distilled water (Otsuka Pharmaceutical) was added in an equivalent volume to 100% peanut oil (Kanto Kagaku) containing 1% oxazolone, and the components were vigorously mixed with a glass syringe (Top Co.), to prepare an emulsion containing 0.5% oxazolone.
<Induction with Oxazolone>
The mice were fasted on the 3rd day after oxazolone sensitization, and were injected with 100 μl of the emulsion containing 0.5% oxazolone prepared in the way described above intrarectally at a site approximately 3 cm from the anus under ether anesthesia on the 4th day.
<Colon-Infiltrating Neutrophil Assay>
Each compound was suspended or dissolved in an aqueous solution containing 0.5% methyl cellulose (Wako), and orally administered at 30 mg/kg 30 minutes prior to the intrarectal injection of oxazolone emulsion. Four hours after the intrarectal injection of oxazolone, mice were sacrificed by cervical dislocation, and colons were extirpated, dissected in the longitudinal direction, washed with physiological saline, and transferred to ice-cooled plastic centrifugation tubes. After adding 1 ml of 50 mM potassium phosphate buffer (hereinafter abbreviated as KPB) (pH 6.0) to the tube, and the tissue were homogenized with PHYSCOTRON (Microtec Nition Co., Ltd.), 2 ml of 50 mM KPB (pH 6.0) was added and the mixture was centrifuged at 3000 rpm, 4° C. for 10 minutes and the supernatant was removed. To the resultant precipitate was added 1 ml of 50 mM KPB (pH 6.0) containing 0.5% hexadecyltrimethyl-ammonium bromide (Sigma), and freeze-thawed 3 to 5 times using liquid nitrogen and hot water, centrifuged at 3000 rpm, 4° C. for 10 minutes to yield a supernatant. The myeloperoxidase enzyme activity in the supernatant was assayed in the following manner. Specifically, to 10 μl of the obtained supernatant was added 200 μl of 50 mM KPB (pH6.0) containing 0.017% o-dianisidine (Sigma) and 0.0005% hydrogen peroxide (Wako), incubated at 37° C., and the change in absorbance at 450 nm was continuously measured for 1 minute using an EL340 Automated Microplate Reader (BIO-TEK) in kinetic mode. The units were the rate of change in absorbance per minute (mO.D./min.). With regard to the effect of each compound, the inhibitory rate (%) with respect to the oxazolone control group, i.e. the oxazolone-injected/compound-free group, was shown in the table 3.

CCCCN1CCN(c2cc(C#N)ccc2[C@H]2CC[C@@H](C(C)(C)C)CC2)CC1.Cl [Example 12, cis-4-(4-t-Butylcyclohexyl)-3-(4-butylpiperazine-1-yl)benzonitrile hydrochloride]
inhibition in vivo at 30 mg/kg: 34%

CCCCN1CCN(c2cc(C#N)ccc2[C@H]2CC[C@H](C(C)(C)C)CC2)CC1.Cl [Example 13, trans-4-(4-t-Butylcyclohexyl)-3-(4-butylpiperazin-1-yl)benzonitrile hydrochloride]
inhibition in vivo at 30 mg/kg: 13%
